Tests used:
[1] = system: Surinam grass; assay: Test E pre-/postemergence herbicide test; assay type: in vivo, Urochloa decumbens
Method in brief: (§1)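 In this greenhouse assay, compounds in a solvent vehicle containing surfactant were applied pre- and postemergence, the latter to plants 2 to 18 cm high. Control was judged by eye after 12 to 14 days on a 0 to 100 scale.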

[2] = system: green foxtail; assay: Test C postemergence herbicide test; assay type: in vivo, Setaria viridis
Method in brief: (§2)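 Postemergence sprays were applied to plants 2 to 18 cm tall (1- to 4-leaf stage); in the flooded paddy test, barnyardgrass was grown to the 2-leaf stage. After 12 to 14 days in a greenhouse, injury was visually rated against untreated controls on a 0–100 scale (100 = complete control).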

[3] = system: johnsongrass; assay: Test E pre-/postemergence herbicide test; assay type: in vivo, Sorghum halepense
Method in brief: as §1

[4] = system: common chickweed; assay: Test E pre-/postemergence herbicide test; assay type: in vivo, Stellaria media
Method in brief: as §1

[5] = system: Italian ryegrass; assay: Test C postemergence herbicide test; assay type: in vivo, Lolium multiflorum
Method in brief: as §2

[6] = system: green foxtail; assay: Test E pre-/postemergence herbicide test; assay type: in vivo, Setaria viridis
Method in brief: as §1

[7] = system: dallisgrass; assay: Test E pre-/postemergence herbicide test; assay type: in vivo, Paspalum dilatatum
Method in brief: as §1

[8] = system: windgrass; assay: Test C postemergence herbicide test; assay type: in vivo, Apera spica-venti
Method in brief: as §2

[9] = system: downy bromegrass; assay: Test C postemergence herbicide test; assay type: in vivo, Bromus tectorum
Method in brief: as §2

[10] = system: downy bromegrass; assay: Test E pre-/postemergence herbicide test; assay type: in vivo, Bromus tectorum
Method in brief: as §1

[11] = system: wild oat; assay: Test C postemergence herbicide test; assay type: in vivo, Avenafatua
Method in brief: as §2

[12] = system: common sowthistle; assay: Test E pre-/postemergence herbicide test; assay type: in vivo, Sonchus oleraceous
Method in brief: as §1

[13] = system: quackgrass; assay: Test E pre-/postemergence herbicide test; assay type: in vivo, Elytrigia repens
Method in brief: as §1

[14] = system: common mallow; assay: Test E pre-/postemergence herbicide test; assay type: in vivo, Malva sylvestris
Method in brief: as §1

[15] = Preemergence, 62 g ai/ha, scale 0 to 100
[16] = Preemergence, 125 g ai/ha, scale 0 to 100
[17] = Preemergence, 500 g ai/ha, scale 0 (no effect) to 100 (complete control)
[18] = Postemergence, 500 g ai/ha, scale 0 to 100
[19] = Postemergence, 250 g ai/ha, scale 0 to 100, 0 no effect, 100 complete control
[20] = postemergence, 125 g ai/ha, scale 0 to 100
[21] = postemergence, 62 g ai/ha, scale 0 to 100
[22] = Preemergence, 125 g ai/ha, scale 0 (no effect) to 100 (complete control)
[23] = Preemergence, 250 g ai/ha, scale 0 (no effect) to 100 (complete control)
[24] = Postemergence, 250 g ai/ha, scale 0 to 100

In the case of `CCNC(=O)c1cccc(NC(=O)c2cc(C(C)(C)C)nn2CC)n1` [Compound 144], the “Plant response rating, Surinam Grass” value [1, 15] is reported as 10, the “Plant response rating, Surinam Grass” value [1, 16] is reported as 50 and the “Plant response rating, Surinam Grass” value [1, 17] is reported as 70. The “Foxtail, Green plant response rating” value [2, 18] was 60, the “Plant response rating, Foxtail, Green” value [2, 19] was 60 and the “Plant response rating, Foxtail, Green” value [2, 20] was 60. The “Plant response rating, Foxtail, Green” value [2, 21] was 40, the “Plant response rating, Johnsongrass” value [3, 15] was 30 and the “Plant response rating, Johnsongrass” value [3, 22] was 50. For the same molecule, the “Plant response rating, Johnsongrass” value [3, 23] was 60, the “Plant response rating, Johnsongrass” value [3, 17] was 60 and the “Plant response rating, Chickweed” value [4, 15] was 50. For the same molecule, the “Plant response rating, Chickweed” value [4, 22] was 90, the “Plant response rating, Chickweed” value [4, 23] was 95 and the “Plant response rating, Chickweed” value [4, 17] was 95. For the same molecule, the “Ryegrass, Italian plant response rating” value [5, 18] was 50, the “Plant response rating, Ryegrass, Italian” value [5, 19] was 40 and the “Plant response rating, Ryegrass, Italian” value [5, 20] was 20. For the same molecule, the “Plant response rating, Ryegrass, Italian” value [5, 21] was 20, the “Plant response rating, Foxtail, Green” value [6, 15] was 10 and the “Plant response rating, Foxtail, Green” value [6, 22] was 50. For the same molecule, the “Plant response rating, Foxtail, Green” value [6, 23] was 80, the “Plant response rating, Foxtail, Green” value [6, 17] was 90 and the “Plant response rating, Dallisgrass” value [7, 15] was 0. For the same molecule, the “Plant response rating, Dallisgrass” value [7, 22] was 30, the “Plant response rating, Dallisgrass” value [7, 23] was 60 and the “Plant response rating, Dallisgrass” value [7, 17] was 80. For the same molecule, the “Windgrass plant response rating” value [8, 18] was 70, the “Plant response rating, Windgrass” value [8, 19] was 60 and the “Plant response rating, Windgrass” value [8, 20] was 60. For the same molecule, the “Plant response rating, Windgrass” value [8, 21] was 50, the “Bromegrass, Downy plant response rating” value [9, 18] was 40 and the “Plant response rating, Bromegrass, Downy” value [9, 19] was 40. The “Plant response rating, Bromegrass, Downy” value [9, 20] was 40, the “Plant response rating, Bromegrass, Downy” value [9, 21] was 20 and the “Plant response rating, Bromegrass, Downy” value [10, 15] was 20. The “Plant response rating, Bromegrass, Downy” value [10, 22] was 50, the “Plant response rating, Bromegrass, Downy” value [10, 23] was 60 and the “Plant response rating, Bromegrass, Downy” value [10, 17] was 80. For the same molecule, the “Oat, Wild plant response rating” value [11, 18] was 50, the “Plant response rating, Oat, Wild” value [11, 19] was 50 and the “Plant response rating, Oat, Wild” value [11, 20] was 50. The “Plant response rating, Oat, Wild” value [11, 21] was 30, the “Plant response rating, Sowthistle” value [12, 15] was 10 and the “Plant response rating, Sowthistle” value [12, 22] was 50. For the same molecule, the “Plant response rating, Sowthistle” value [12, 23] was 90, the “Plant response rating, Sowthistle” value [12, 17] was 95 and the “Plant response rating, Quackgrass” value [13, 15] was 10. The “Plant response rating, Quackgrass” value [13, 22] was 30, the “Plant response rating, Quackgrass” value [13, 23] was 70 and the “Plant response rating, Quackgrass” value [13, 17] was 80. For the same molecule, the “Plant response rating, Mallow” value [14, 15] was 60, the “Plant response rating, Mallow” value [14, 22] was 60 and the “Plant response rating, Mallow” value [14, 23] was 70. For the same molecule, the “Plant response rating, Mallow” value [14, 17] was 95.

For `CCNC(=O)c1ccc(F)c(NC(=O)c2cn(C(C)(C)C)nc2CC)c1` [Compound 193], the “Plant response rating, Surinam Grass” value [1, 18] was 90, the “Plant response rating, Surinam Grass” value [1, 24] was 85 and the “Plant response rating, Surinam Grass” value [1, 16] was 80. For the same molecule, the “Plant response rating, Surinam Grass” value [1, 17] was 100, the “Plant response rating, Surinam Grass” value [1, 20] was 70 and the “Plant response rating, Surinam Grass” value [1, 21] was 10. For the same molecule, the “Plant response rating, Johnsongrass” value [3, 18] was 80, the “Plant response rating, Johnsongrass” value [3, 24] was 70 and the “Plant response rating, Johnsongrass” value [3, 15] was 20. For the same molecule, the “Plant response rating, Johnsongrass” value [3, 16] was 75, the “Plant response rating, Johnsongrass” value [3, 23] was 85 and the “Plant response rating, Johnsongrass” value [3, 17] was 95. For the same molecule, the “Plant response rating, Johnsongrass” value [3, 20] was 70, the “Plant response rating, Johnsongrass” value [3, 21] was 40 and the “Plant response rating, Chickweed” value [4, 18] was 100. The “Plant response rating, Chickweed” value [4, 24] was 95, the “Plant response rating, Chickweed” value [4, 15] was 80 and the “Plant response rating, Chickweed” value [4, 16] was 100. For the same molecule, the “Plant response rating, Chickweed” value [4, 23] was 100, the “Plant response rating, Chickweed” value [4, 17] was 100 and the “Plant response rating, Chickweed” value [4, 21] was 40. For the same molecule, the “Plant response rating, Foxtail, Green” value [6, 18] was 90, the “Plant response rating, Foxtail, Green” value [6, 24] was 50 and the “Plant response rating, Foxtail, Green” value [6, 15] was 10. The “Plant response rating, Foxtail, Green” value [6, 16] was 30, the “Plant response rating, Foxtail, Green” value [6, 23] was 80 and the “Plant response rating, Foxtail, Green” value [6, 17] was 100. The “Plant response rating, Foxtail, Green” value [6, 20] was 20, the “Plant response rating, Foxtail, Green” value [6, 21] was 10 and the “Plant response rating, Dallisgrass” value [7, 18] was 90. For the same molecule, the “Plant response rating, Dallisgrass” value [7, 24] was 90, the “Plant response rating, Dallisgrass” value [7, 15] was 40 and the “Plant response rating, Dallisgrass” value [7, 16] was 95. For the same molecule, the “Plant response rating, Dallisgrass” value [7, 23] was 95, the “Plant response rating, Dallisgrass” value [7, 17] was 100 and the “Plant response rating, Dallisgrass” value [7, 20] was 40. The “Plant response rating, Dallisgrass” value [7, 21] was 10, the “Plant response rating, Bromegrass, Downy” value [10, 18] was 80 and the “Plant response rating, Bromegrass, Downy” value [10, 24] was 70. For the same molecule, the “Plant response rating, Bromegrass, Downy” value [10, 15] was 10, the “Plant response rating, Bromegrass, Downy” value [10, 16] was 30 and the “Plant response rating, Bromegrass, Downy” value [10, 23] was 80. The “Plant response rating, Bromegrass, Downy” value [10, 17] was 90, the “Plant response rating, Bromegrass, Downy” value [10, 20] was 30 and the “Plant response rating, Bromegrass, Downy” value [10, 21] was 20. For the same molecule, the “Plant response rating, Sowthistle” value [12, 18] was 95, the “Plant response rating, Sowthistle” value [12, 24] was 95 and the “Plant response rating, Sowthistle” value [12, 15] was 80. For the same molecule, the “Plant response rating, Sowthistle” value [12, 16] was 95, the “Plant response rating, Sowthistle” value [12, 23] was 95 and the “Plant response rating, Sowthistle” value [12, 17] was 95. The “Plant response rating, Sowthistle” value [12, 20] was 60, the “Plant response rating, Sowthistle” value [12, 21] was 10 and the “Plant response rating, Quackgrass” value [13, 18] was 80. The “Plant response rating, Quackgrass” value [13, 24] was 80, the “Plant response rating, Quackgrass” value [13, 15] was 10 and the “Plant response rating, Quackgrass” value [13, 16] was 60. For the same molecule, the “Plant response rating, Quackgrass” value [13, 23] was 70, the “Plant response rating, Quackgrass” value [13, 17] was 95 and the “Plant response rating, Quackgrass” value [13, 20] was 70. For the same molecule, the “Plant response rating, Quackgrass” value [13, 21] was 0, the “Plant response rating, Mallow” value [14, 18] was 90 and the “Plant response rating, Mallow” value [14, 24] was 90. The “Plant response rating, Mallow” value [14, 15] was 60, the “Plant response rating, Mallow” value [14, 16] was 95 and the “Plant response rating, Mallow” value [14, 23] was 95. The “Plant response rating, Mallow” value [14, 17] was 95, the “Plant response rating, Mallow” value [14, 20] was 60 and the “Plant response rating, Mallow” value [14, 21] was 20.

`CCc1nn(C(C)C)nc1C(=O)Nc1cccc(C(=O)N2CCCCC2)c1` [Compound 385] was tested, and the “Plant response rating, Surinam Grass” value [1, 16] was 20, the “Plant response rating, Johnsongrass” value [3, 15] was 10 and the “Plant response rating, Johnsongrass” value [3, 16] was 10. The “Plant response rating, Johnsongrass” value [3, 23] was 30, the “Plant response rating, Chickweed” value [4, 15] was 20 and the “Plant response rating, Chickweed” value [4, 16] was 20. The “Plant response rating, Chickweed” value [4, 23] was 60, the “Plant response rating, Foxtail, Green” value [6, 15] was 10 and the “Plant response rating, Foxtail, Green” value [6, 16] was 30. For the same molecule, the “Plant response rating, Foxtail, Green” value [6, 23] was 60, the “Plant response rating, Dallisgrass” value [7, 15] was 10 and the “Plant response rating, Dallisgrass” value [7, 16] was 30. For the same molecule, the “Plant response rating, Dallisgrass” value [7, 23] was 50, the “Plant response rating, Bromegrass, Downy” value [10, 15] was 10 and the “Plant response rating, Bromegrass, Downy” value [10, 16] was 10. The “Plant response rating, Bromegrass, Downy” value [10, 23] was 20, the “Plant response rating, Sowthistle” value [12, 16] was 0 and the “Plant response rating, Sowthistle” value [12, 23] was 60. For the same molecule, the “Plant response rating, Quackgrass” value [13, 15] was 10, the “Plant response rating, Quackgrass” value [13, 16] was 20 and the “Plant response rating, Quackgrass” value [13, 23] was 30. The “Plant response rating, Mallow” value [14, 15] was 10, the “Plant response rating, Mallow” value [14, 16] was 10 and the “Plant response rating, Mallow” value [14, 23] was 20.

Reference: patent US20060069132A1, “Azolecarboxamide herbicides” (priority 2004, published 2006)
